How the values were obtained:
Assay in all cases: selective drug sensitivity score (sDSS, relative to normal bone marrow) (sDSS (score)); higher = more potent and effective on the cell line relative to normal bone marrow cells
Conditions in all cases: 72 h
[1] = test system: TMD5
[2] = test system: SUP-B15
[3] = test system: COG-LL-317
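Also: ALL cell lines in 384-well plates, five doses spanning 10,000-fold, each plate scaled between vehicle and 100 µmol/L benzalkonium chloride controls, sDSS an adapted area-under-curve metric.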

CC[C@H](CC#N)OC(=O)N[C@@H](C)c1cccc(NC(=O)Nc2ccc(-c3cnco3)c(OC)c2)c1 [AVN944] (top concentration 10000 nM)
selective drug sensitivity score [1]: 2.74 | selective drug sensitivity score [2]: 14.6 | selective drug sensitivity score [3]: 20.6

CN(Cc1cnc2nc(N)nc(N)c2n1)c1ccc(C(=O)N[C@@H](CCC(=O)O)C(=O)O)cc1 [Methotrexate] (top concentration 5000 nM)
selective drug sensitivity score [1]: -0.42 | selective drug sensitivity score [2]: -0.32 | selective drug sensitivity score [3]: 9.18

CC[C@@]1(O)C(=O)OCc2c1cc1n(c2=O)Cc2cc3c(CN(C)C)c(O)ccc3nc2-1 [Topotecan] (top concentration 10000 nM)
selective drug sensitivity score [1]: 14.3 | selective drug sensitivity score [2]: 22.4 | selective drug sensitivity score [3]: 28

COc1ccc(-c2ccc3c(N4CCOC[C@@H]4C)nc(N4CCOC[C@@H]4C)nc3n2)cc1CO [AZD8055] (top concentration 10000 nM)
selective drug sensitivity score [1]: -1.62 | selective drug sensitivity score [2]: 11.9 | selective drug sensitivity score [3]: 4.78

Cc1sc2c(c1C)C(c1ccc(Cl)cc1)=N[C@@H](CC(=O)NCCCCNC(=O)COc1cccc3c1C(=O)N(C1CCC(=O)NC1=O)C3=O)c1nnc(C)n1-2 (stereo not given in full) [dBET1] (top concentration 10000 nM)
selective drug sensitivity score [1]: -13.8 | selective drug sensitivity score [2]: 0.52 | selective drug sensitivity score [3]: 2.42

CN1CCN(C2CCC(n3cc(-c4ccc(Oc5ccccc5)cc4)c4c(N)ncnc43)CC2)CC1 (stereo not given) (top concentration 10000 nM)
selective drug sensitivity score [1]: 10.2 | selective drug sensitivity score [2]: 16.1 | selective drug sensitivity score [3]: 0.82

O=c1[nH]c(=O)n([C@H]2C[C@H](O)[C@@H](CO)O2)cc1C(F)(F)F [Trifluridine] (top concentration 10000 nM)
selective drug sensitivity score [1]: -1.84 | selective drug sensitivity score [2]: 15.4 | selective drug sensitivity score [3]: 15.6

COc1cccc2c1C(=O)c1c(O)c3c(c(O)c1C2=O)C[C@@](O)(C(=O)CO)C[C@@H]3O[C@H]1C[C@H](N)[C@@H](O)[C@H](C)O1 [Epirubicin] (top concentration 1000 nM)
selective drug sensitivity score [1]: 1.02 | selective drug sensitivity score [2]: 13.7 | selective drug sensitivity score [3]: 17

CON(C)C(=O)N1N=C(c2cc(F)ccc2F)S[C@@]1(CCCN)c1ccccc1 [Filanesib] (top concentration 1000 nM)
selective drug sensitivity score [1]: 10.5 | selective drug sensitivity score [2]: 21.6 | selective drug sensitivity score [3]: 20.8

CO[C@H]1C[C@@H]2CC[C@@H](C)[C@@](O)(O2)C(=O)C(=O)N2CCCC[C@H]2C(=O)O[C@H]([C@H](C)C[C@@H]2CC[C@@H](OCCO)[C@H](OC)C2)CC(=O)[C@H](C)/C=C(\C)[C@@H](O)[C@@H](OC)C(=O)[C@H](C)C[C@H](C)/C=C/C=C/C=C/1C [Everolimus] (top concentration 100 nM)
selective drug sensitivity score [1]: -3.8 | selective drug sensitivity score [2]: 6.1 | selective drug sensitivity score [3]: 2.4
